Source: patent US20120208776A1 (priority 2002, published 2012)
Where two headings read alike, the source gives them in different places.

Tests used:
[1] = Solubility (observation)
[2] = system: MDA-MB-453 cells; assay: Cell-cycle analysis by DNA flow cytometry; assay type: cell-based, human; settings: 48 hrs
Method: (§1) Synchrony: To synchronize the cells, 3×10^5 cells were plated onto 10 cm dishes and grown for 2 days in DMEM supplemented with 10% fetal bovine serum.
(§2) After incubation for 1-3 days, the supernatant was collected, and the cells were trypsinized, collected, and washed with phosphate buffered saline (PBS) containing 5% FBS. Cell pellets were re-suspended in 1 ml of PBS plus 5% FBS. Thereafter, 5 ml of 70% ethanol were added drop-wise, while vortexing the tube, and the mixture was stored at 4° C. Cells were centrifuged, washed with PBS plus 5% FBS, and re-suspended in 400 μl of propidium iodide (0.1 mg/ml) (Sigma Chemical Co.). 400 μl (2 mg/ml) of RNase (Sigma Chemical Co.) were added, and the cells were incubated in the dark at room temperature for 30 min.

[3] = system: MCF7 cells; assay: Cell proliferation, cell count (Coulter Counter); assay type: cell-based, human; settings: for IC50: MCF7 cells, 96 h
[4] = system: MCF7 cells; assay: Cell-cycle analysis by DNA flow cytometry; assay type: cell-based, human; settings: about 40 μg/ml
Method: as §1, §2

[5] = system: MDA-MB-453 cells; assay: Cell proliferation, cell count (Coulter Counter); settings: MDA-MB-453 (FIG. 10)
Method: For the cell count assay, breast cancer cells were seeded, in triplicate, at 2×10^4 cells per well, in 24- or 96-well plates.
(§3) For the Coulter counter assay, cells were seeded at 2×10^4 cells per well in 24 well plates (0.875 cm diameter) as described previously. […] Control and treated cells were compared using the student's t-test (p<0.05). For cell cycle analysis the cells were plated (3×10^5) onto 6 cm dishes and allowed to attach for 24 hours. […] After 24 hours the cells were analyzed by DNA flow cytometry, as described previously.

[6] = system: MDA-MB-453 cells; assay: Combination with chemotherapy agents, cell count, combination index (CI); assay type: cell-based, human
[7] = system: Na^+-K^+-ATPase; assay: Enzymatic assay of adenosine 5′-triphosphatase; assay type: biochemical; settings: 20 μM
Method: Enzymatic assay of adenosine 5′-triphosphatase. The enzymatic assay of ATPase (adenosine 5′-triphosphatase, EC 3.6.1.3) followed the Sigma Prod. […] [P] was determined by the Taussky-Shorr method.

[8] = system: MDA-MB-453 cells; assay: Combination of agents, MTT assay, combination index
Method: Calculating the Combination Index. To determine the Combination Index (CI), 1) the Na^+-K^+-ATPase enzyme or 2) MDA-MB-453 cells were exposed to all combinations of 3, 4 or 5 concentrations of each of the agents tested and a solvent control. […] The results of the enzymatic assay of ATPase or MTT assay were analyzed for possible synergistic effects using the median effect principle. Variable ratios of drugs were employed and mutually exclusive equations were assumed.
Calculating the Combination Index.
The simvastatin was obtained from Sigma of St. Louis, Mo. The concentrations tested in the present example were 0, 0.2, 2, 5, and 20 μg/ml actein and 0, 0.8, 4, 20 and 40 μg/ml simvastatin.

[9] = target: NTPase/helicase of hepatitis C virus (Hepatitis C virus genotype 1a, UniProt P27958); settings: competitive inhibition of ATP binding; cited from earlier work
[10] = system: MDA-MB-453 cells; assay: MTT assay, 96 hours; assay type: cell-based, human; settings: Homo sapiens, MTT, 96 h, read-out: IC50
Method: as §3

[11] = value in parentheses, read-out: IC50

NTPase/helicase of hepatitis C virus, sequence (P27958 1203-1364): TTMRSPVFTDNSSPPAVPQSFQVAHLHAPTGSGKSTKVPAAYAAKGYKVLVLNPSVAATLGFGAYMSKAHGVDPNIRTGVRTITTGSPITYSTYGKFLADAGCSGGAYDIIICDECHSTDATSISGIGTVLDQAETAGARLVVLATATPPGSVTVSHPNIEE

For “25-acetyl-7,8-didehydrocimigenol 3-O-β-D-xylopyranoside”, the solubility [1] was “sufficiently soluble”.

For `O=c1[nH]cc(F)c(=O)[nH]1` [5-FU, 5-fluorouracil, reference compound], the “G1 (%)” value ([2]; (c) 5-FU 0.02 μg/mL) was 28.9%, the “G2/M (%)” value ([2]; (c) 5-FU 0.02 μg/mL) was 20.3% and the “S (%)” value ([2]; (c) 5-FU 0.02 μg/mL) was 47.6%. For the same compound, the “Sub G1 (%)” value ([2]; (c) 5-FU 0.02 μg/mL) was 3. %.

In the case of `CC(=O)O[C@@H]1C[C@@]23C[C@@]24CC[C@H](O[C@@H]2OC[C@@H](O)[C@H](O)[C@H]2O)C(C)(C)[C@@H]4CC[C@H]3[C@]2(C)C[C@@H]3O[C@@]4(C[C@@H](C)[C@@H]3[C@@]12C)OC[C@@]1(C)O[C@@H]41` [23-epi-26-deoxyactein], the IC50 [3] is reported as 21 µg/mL, the IC50 [3, 11] is reported as 32 µM and the cell-cycle arrest [4] is reported as “induced cell-cycle arrest at G1”.

For `C[C@@H]1C[C@@H]2O[C@@]3(O[C@@H]2C(C)(C)O)[C@H](O)[C@@]2(C)[C@@H]4CC[C@H]5C(C)(C)[C@@H](O)CC[C@@]56C[C@@]46CC[C@]2(C)[C@@H]13` [Cimigenol, cimigenol], the “effect on the growth of human breast cancer cells” value [5] was “less active than cimigenol glycoside”.

In the case of `COc1cccc2c1C(=O)c1c(O)c3c(c(O)c1C2=O)C[C@@](O)(C(=O)CO)C[C@@H]3O[C@H]1C[C@H](N)[C@H](O)[C@H](C)O1` [Doxorubicin, doxorubicin, reference compound], the “G1 (%)” value ([2]; (c) Doxorubicin 0.1 μg/mL) is reported as 30.1%, the “G2/M (%)” value ([2]; (c) Doxorubicin 0.1 μg/mL) is reported as 61.7% and the “S (%)” value ([2]; (c) Doxorubicin 0.1 μg/mL) is reported as 5.6%. For the same compound, the “Sub G1 (%)” value ([2]; (c) Doxorubicin 0.1 μg/mL) was 2.5%.

With `CC(=O)O[C@@H]1C[C@@]23C[C@@]24CC[C@H](O[C@@H]2OC[C@@H](O)[C@H](O)[C@H]2O)C(C)(C)[C@@H]4CC=C3[C@]2(C)C[C@@H]3O[C@@]4(O)[C@H](OC(C)(C)[C@H]4O)[C@@H](C)[C@@H]3[C@@]12C` [cimiracemoside A] the IC50 [3] was 41 µg/mL, the IC50 [3, 11] was 61 µM and the cell-cycle arrest [4] was “induced cell-cycle arrest at G1”.

In the case of `COc1cc(/C=C/C(=O)O)ccc1O` [ferulic, ferulic acid], the “effect on the growth of MCF7 cells” value [3] is reported as “active in suppressing the growth”.

In the case of `COc1ccc(/C=C/C(=O)O)cc1O` [isoferulic, isoferulic acid], the “effect on the growth of MCF7 cells” value [3] is reported as “active in suppressing the growth”.

In the case of `CC(=O)O[C@H]1C(=O)[C@@]2(C)[C@H]([C@H](OC(=O)c3ccccc3)[C@]3(O)C[C@H](OC(=O)[C@H](O)[C@@H](NC(=O)c4ccccc4)c4ccccc4)C(C)=C1C3(C)C)[C@]1(OC(C)=O)CO[C@@H]1C[C@@H]2O` [paclitaxel, reference compound], the “number of viable cells, average” value ([6]; tax 1) is reported as 118624, the “number of viable cells, average” value ([6]; tax 4) is reported as 37060.67 and the “number of viable cells, average” value ([6]; tax .25 (nM)) is reported as 198416.3. The “G1 (%)” value ([2]; (b) Taxol 1 nM) was 71.0%, the “G2/M (%)” value ([2]; (b) Taxol 1 nM) was 17.0% and the “S (%)” value ([2]; (b) Taxol 1 nM) was 10.8%. The “Sub G1 (%)” value ([2]; (b) Taxol 1 nM) was 1.0%, the “percent inhibition of in vitro Na^+-K^+-ATPase activity” value [7] was 21.7% and the cell survival ([8]; paclitaxel 1 nM alone) was 63.2%. For the same compound, the IC50 [9] was ~16 µM.

With `CCC(C)(C)C(=O)O[C@H]1C[C@@H](C)C=C2C=C[C@H](C)[C@H](CC[C@@H]3C[C@@H](O)CC(=O)O3)[C@H]21` [simvastatin] the IC50 [10] was 21.5 µM, the viability at 20 µg/mL ([8]; Homo sapiens, MDA-MB-453, read-out: percent viable cells) was 83.1% and the cell survival ([8]; simvastatin 40 ug/ml alone) was 58.2%.

Compound cimifugoside has an IC50 [3] of 22 µg/mL and an IC50 [3, 11] of 36 µM.
